Laboratory results taken from patent publication US10450316B2, “Certain protein kinase inhibitor” (Chongqing Fochon Pharmaceutical Co., Ltd., priority 2015, dated 2019).

Test system: BE(2)-C cell
Assay: Cell proliferation assay (MTS) in BE(2)-C cells
Type: cell-based
Details: Homo sapiens, inhibition of BE(2)-C cell proliferation, 48 h
How it was run: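 Proliferation read-out was MTS absorbance at 490 nm, with 650 nm as reference, after a 2 h MTS incubation, giving IC50 values. Before reading, BE(2)-C cells plated at 3000 per well were exposed to nine compound concentrations from 10000 down to 1.5 nM for 48 h at 37 °C, 5% CO2.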

SMILES: CN1CC2(C1)CN(Cc1ccc(Nc3ncc(F)c(-c4cc(F)c5nc6n(c5c4)[C@H](C(F)(F)F)CC6)n3)nc1)C2 [Example 68, (S)-5-fluoro-4-(5-fluoro-1-(trifluoromethyl)-2,3-dihydro-1H-benzo[d]pyrrolo[1,2-a]imidazol-7-yl)-N-(5-((6-methyl-2,6-diazaspiro[3.3]heptan-2-yl)methyl)pyridin-2-yl)pyrimidin-2-amine]
- IC50: 0.01 to 0.1 µM

SMILES: CCN1CC2(C1)CN(Cc1ccc(Nc3ncc(F)c(-c4cc(F)c5nc6n(c5c4)[C@H](C(F)(F)F)CC6)n3)nc1)C2 [Example 69, (S)-N-(5-((6-ethyl-2,6-diazaspiro[3.3]heptan-2-yl)methyl)pyridin-2-yl)-5-fluoro-4-(5-fluoro-1-(trifluoromethyl)-2,3-dihydro-1H-benzo[d]pyrrolo[1,2-a]imidazol-7-yl)pyrimidin-2-amine]
- IC50: 0.01 to 0.1 µM

SMILES: Fc1cnc(Nc2ccc(CN3CCC4(CCNCC4)CC3)cn2)nc1-c1cc(F)c2nc3n(c2c1)[C@H](C(F)(F)F)CC3 [Example 70, (S)-N-(5-((3,9-diazaspiro[5.5]undecan-3-yl)methyl)pyridin-2-yl)-5-fluoro-4-(5-fluoro-1-(trifluoromethyl)-2,3-dihydro-1H-benzo[d]pyrrolo[1,2-a]imidazol-7-yl)pyrimidin-2-amine]
- IC50: > 1 µM

SMILES: CN1CCC2(CC1)CCN(Cc1ccc(Nc3ncc(F)c(-c4cc(F)c5nc6n(c5c4)[C@H](C(F)(F)F)CC6)n3)nc1)CC2 [Example 71, (S)-5-fluoro-4-(5-fluoro-1-(trifluoromethyl)-2,3-dihydro-1H-benzo[d]pyrrolo[1,2-a]imidazol-7-yl)-N-(5-((9-methyl-3,9-diazaspiro[5.5]undecan-3-yl)methyl)pyridin-2-yl)pyrimidin-2-amine]
- IC50: 0.01 to 0.1 µM

SMILES: CCN1CCC2(CC1)CCN(Cc1ccc(Nc3ncc(F)c(-c4cc(F)c5nc6n(c5c4)[C@H](C(F)(F)F)CC6)n3)nc1)CC2 [Example 72, (S)-N-(5-((9-ethyl-3,9-diazaspiro[5.5]undecan-3-yl)methyl)pyridin-2-yl)-5-fluoro-4-(5-fluoro-1-(trifluoromethyl)-2,3-dihydro-1H-benzo[d]pyrrolo [1,2-a]imidazol-7-yl)pyrimidin-2-amine]
- IC50: 0.01 to 0.1 µM

SMILES: Fc1cnc(Nc2ccc(CN3CC4CNCC4C3)cn2)nc1-c1cc(F)c2nc3n(c2c1)[C@H](C(F)(F)F)CC3 (some centres unmarked) [Example 73, 5-fluoro-4-((5)-5-fluoro-1-(trifluoromethyl)-2,3-dihydro-1H-benzo[d]pyrrolo[1,2-a]imidazol-7-yl)-N-(5-((hexahydropyrrolo[3,4-c]pyrrol-2(1H)-yl)methyl)pyridin-2-yl)pyrimidin-2-amine]
- IC50: > 0.1 µM

SMILES: CN1CC2CN(Cc3ccc(Nc4ncc(F)c(-c5cc(F)c6nc7n(c6c5)[C@H](C(F)(F)F)CC7)n4)nc3)CC2C1 (stereo partly drawn) [Example 74, 5-fluoro-4-((S)-5-fluoro-1-(trifluoromethyl)-2,3-dihydro-1H-benzo[d]pyrrolo[1,2-a]imidazol-7-yl)-N-(5-((5-methylhexahydropyrrolo[3,4-c]pyrrol-2(1H)-yl)methyl)pyridin-2-yl)pyrimidin-2-amine]
- IC50: 0.01 to 0.1 µM

SMILES: CCN1CC2CN(Cc3ccc(Nc4ncc(F)c(-c5cc(F)c6nc7n(c6c5)[C@H](C(F)(F)F)CC7)n4)nc3)CC2C1 (stereo partly drawn) [Example 75, N-(5-((5-ethylhexahydropyrrolo[3,4-c]pyrrol-2(1H)-yl)methyl)pyridin-2-yl)-5-fluoro-4-((S)-5-fluoro-1-(trifluoromethyl)-2,3-dihydro-1H-benzo[d]pyrrolo[1,2-a]imidazol-7-yl)pyrimidin-2-amine]
- IC50: 0.01 to 0.1 µM

SMILES: Fc1cnc(Nc2ccc(CN3C4CCC3CNC4)cn2)nc1-c1cc(F)c2nc3n(c2c1)[C@H](C(F)(F)F)CC3 [Example 76, N-(5-((3,8-diazabicyclo[3.2.1]octan-8-yl)methyl)pyridin-2-yl)-5-fluoro-4-((S)-5-fluoro-1-(trifluoro-methyl)-2,3-dihydro-1H-benzo[d]pyrrolo[1,2-a]imidazol-7-yl)pyrimidin-2-amine]
- IC50: 0.01 to 0.1 µM

SMILES: CN1CC2CCC(C1)N2Cc1ccc(Nc2ncc(F)c(-c3cc(F)c4nc5n(c4c3)[C@H](C(F)(F)F)CC5)n2)nc1 [Example 77, 5-fluoro-4-((S)-5-fluoro-1-(trifluoromethyl)-2,3-dihydro-1H-benzo[d]pyrrolo[1,2-a]imidazol-7-yl)-N-(5-((3-methyl-3,8-diazabicyclo[3.2.1]octan-8-yl)methyl)pyridin-2-yl)pyrimidin-2-amine]
- IC50: 0.01 to 0.1 µM

SMILES: CCN1CC2CCC(C1)N2Cc1ccc(Nc2ncc(F)c(-c3cc(F)c4nc5n(c4c3)[C@H](C(F)(F)F)CC5)n2)nc1 [Example 78, N-(5-((3-ethyl-3,8-diazabicyclo[3.2.1]octan-8-yl)methyl)pyridin-2-yl)-5-fluoro-4-((S)-5-fluoro-1-(trifluoromethyl)-2,3-dihydro-1H-benzo[d]pyrrolo [1,2-a]imidazol-7-yl)pyrimidin-2-amine]
- IC50: 0.01 to 0.1 µM

SMILES: Fc1cnc(Nc2ccc(CN3CC4CCC(C3)N4)cn2)nc1-c1cc(F)c2nc3n(c2c1)[C@H](C(F)(F)F)CC3 [Example 79, N-(5-((3,8-diazabicyclo[3.2.1]octan-3-yl)methyl)pyridin-2-yl)-5-fluoro-4-((S)-5-fluoro-1-(trifluoro-methyl)-2,3-dihydro-1H-benzo[d]pyrrolo[1,2-a]imidazol-7-yl)pyrimidin-2-amine]
- IC50: 0.01 to 0.1 µM

SMILES: CN1C2CCC1CN(Cc1ccc(Nc3ncc(F)c(-c4cc(F)c5nc6n(c5c4)[C@H](C(F)(F)F)CC6)n3)nc1)C2 [Example 80, 5-fluoro-4-((S)-5-fluoro-1-(trifluoromethyl)-2,3-dihydro-1H-benzo[d]pyrrolo[1,2-a]imidazol-7-yl)-N-(5-((8-methyl-3,8-diazabicyclo[3.2.1]octan-3-yl)methyl)pyridin-2-yl)pyrimidin-2-amine]
- IC50: 0.01 to 0.1 µM

SMILES: CCN1C2CCC1CN(Cc1ccc(Nc3ncc(F)c(-c4cc(F)c5nc6n(c5c4)[C@H](C(F)(F)F)CC6)n3)nc1)C2 [Example 81, N-(5-((8-ethyl-3,8-diazabicyclo[3.2.1]octan-3-yl)methyl)pyridin-2-yl)-5-fluoro-4-((S)-5-fluoro-1-(trifluoromethyl)-2,3-dihydro-1H-benzo[d]pyrrolo [1,2-a]imidazol-7-yl)pyrimidin-2-amine]
- IC50: 0.01 to 0.1 µM

SMILES: C[C@@H]1CCc2nc3c(F)cc(-c4nc(Nc5ccc(CN6CCNCC6)cn5)ncc4F)cc3n21 [Example 82, (R)-5-fluoro-4-(5-fluoro-1-methyl-2,3-dihydro-1H-benzo[d]pyrrolo[1,2-a]imidazol-7-yl)-N-(5-(piperazin-1-ylmethyl)pyridin-2-yl)pyrimidin-2-amine]
- IC50: 0.01 to 0.1 µM

SMILES: C[C@@H]1CCc2nc3c(F)cc(-c4nc(Nc5ccc(CN6CCN7CCC[C@@H]7C6)cn5)ncc4F)cc3n21 [Example 85, 5-fluoro-4-((R)-5-fluoro-1-methyl-2,3-dihydro-1H-benzo[d]pyrrolo[1,2-a]imidazol-7-yl)-N-(5-(((R)-hexahydropyrrolo[1,2-a]pyrazin-2(1H)-yl)methyl)pyridin-2-yl)pyrimidin-2-amine]
- IC50: 0.01 to 0.1 µM

SMILES: C[C@@H]1CCc2nc3c(F)cc(-c4nc(Nc5ccc(CN6CCC7(CC6)CNC7)cn5)ncc4F)cc3n21 [Example 86, (R)-N-(5-((2,7-diazaspiro[3.5]nonan-7-yl)methyl)pyridin-2-yl)-5-fluoro-4-(5-fluoro-1-methyl-2,3-dihydro-1H-benzo[d]pyrrolo[1,2-a]imidazol-7-yl)pyrimidin-2-amine]
- IC50: > 0.1 µM

SMILES: C[C@@H]1CCc2nc3c(F)cc(-c4nc(Nc5ccc(CN6CCC7(CC6)CN(C)C7)cn5)ncc4F)cc3n21 [Example 87, (R)-5-fluoro-4-(5-fluoro-1-methyl-2,3-dihydro-1H-benzo[d]pyrrolo[1,2-a]imidazol-7-yl)-N-(5-((2-methyl-2,7-diazaspiro[3.5]nonan-7-yl)methyl)pyridin-2-yl)pyrimidin-2-amine]
- IC50: 0.01 to 0.1 µM

SMILES: CCN1CC2(CCN(Cc3ccc(Nc4ncc(F)c(-c5cc(F)c6nc7n(c6c5)[C@H](C)CC7)n4)nc3)CC2)C1 [Example 88, (R)-N-(5-((2-ethyl-2,7-diazaspiro[3.5]nonan-7-yl)methyl)pyridin-2-yl)-5-fluoro-4-(5-fluoro-1-methyl-2,3-dihydro-1H-benzo[d]pyrrolo[1,2-a]imidazol-7-yl)pyrimidin-2-amine]
- IC50: 0.01 to 0.1 µM

SMILES: C[C@@H]1CCc2nc3c(F)cc(-c4nc(Nc5ccc(CN6CC7(CCNCC7)C6)cn5)ncc4F)cc3n21 [Example 89, (R)-N-(5-((2,7-diazaspiro[3.5]nonan-2-yl)methyl)pyridin-2-yl)-5-fluoro-4-(5-fluoro-1-methyl-2,3-dihydro-1H-benzo[d]pyrrolo[1,2-a]imidazol-7-yl)pyrimidin-2-amine]
- IC50: > 0.1 µM

SMILES: C[C@@H]1CCc2nc3c(F)cc(-c4nc(Nc5ccc(CN6CC7(CCN(C)CC7)C6)cn5)ncc4F)cc3n21 [Example 90, (R)-5-fluoro-4-(5-fluoro-1-methyl-2,3-dihydro-1H-benzo[d]pyrrolo[1,2-a]imidazol-7-yl)-N-(5-((7-methyl-2,7-diazaspiro[3.5]nonan-2-yl)methyl)pyridin-2-yl)pyrimidin-2-amine]
- IC50: 0.01 to 0.1 µM

SMILES: CCN1CCC2(CC1)CN(Cc1ccc(Nc3ncc(F)c(-c4cc(F)c5nc6n(c5c4)[C@H](C)CC6)n3)nc1)C2 [Example 91, (R)-N-(5-((7-ethyl-2,7-diazaspiro[3.5]nonan-2-yl)methyl)pyridin-2-yl)-5-fluoro-4-(5-fluoro-1-methyl-2,3-dihydro-1H-benzo[d]pyrrolo[1,2-a]imidazol-7-yl)pyrimidin-2-amine]
- IC50: 0.01 to 0.1 µM

SMILES: C[C@@H]1CCc2nc3c(F)cc(-c4nc(Nc5ccc(CN6CCC7(CCNCC7)CC6)cn5)ncc4F)cc3n21 [Example 92, (R)-N-(5-((3,9-diazaspiro[5.5]undecan-3-yl)methyl)pyridin-2-yl)-5-fluoro-4-(5-fluoro-1-methyl-2,3-dihydro-1H-benzo[d]pyrrolo[1,2-a]imidazol-7-yl)pyrimidin-2-amine]
- IC50: > 0.1 µM
